What was measured:
Conditions in all cases: scale 0 to 100
bromegrass, downy = test: Test D preemergence; assay type: in vivo, Bromus tectorum
From the text: (§1) Seeds of plant species selected from bluegrass (annual bluegrass, Poa annua), blackgrass (Alopecurus myosuroides), canarygrass (littleseed canarygrass, Phalaris minor), chickweed (common chickweed, Stellaria media), galium (catchweed bedstraw, Galium aparine), bromegrass, downy (downy bromegrass, Bromus tectorum), field poppy (Papaver rhoeas), field violet (Viola arvensis), foxtail, green (green foxtail, Setaria viridis), deadnettle (henbit deadnettle, Lamium amplexicaule), ryegrass, Italian (Italian ryegrass, Lolium multiflorum), kochia (Kochia scoparia), lambsquarters (Chenopodium album), oilseed rape (Brassica napus), pigweed (redroot pigweed, Amaranthus retroflexus), chamomile (scentless chamomile, Matricaria inodora), speedwell (bird's-eye speedwell, Veronica persica), barley, spring (spring barley, Hordeum vulgare), wheat, spring (spring wheat, Triticum aestivum), buckwheat, wild (wild buckwheat, Polygonum convolvulus), mustard, wild (wild mustard, Sinapis arvensis), oat, wild (wild oat, Avena fatua), radish, wild (wild radish, Raphanus raphanistrum), windgrass (Apera spica-venti), Russian thistle (Salsola kali), barley, winter (winter barley, Hordeum vulgare), and wheat, winter (winter wheat, Triticum aestivum) were planted into a silt loam soil and treated preemergence with test chemicals formulated in a non-phytotoxic solvent mixture which included a surfactant.
(§2) At the same time, these species were planted in pots containing Redi-Earth® planting medium (Scotts Company, 14111 Scottslawn Road, Marysville, Ohio 43041) comprising spaghnum peat moss, vermiculite, wetting agent and starter nutrients and treated with postemergence applications of the test chemicals formulated in the same manner. Plants ranged in height from 2 to 18 cm (1- to 4-leaf stage). Treated plants and controls were maintained in a controlled growth environment for 14 to 21 days after which time all species were compared to controls and visually evaluated. Plant response ratings, summarized in Table D, are based on a scale of 0 to 100 where 0 is no effect and 100 is complete control. A dash (-) response means no test result.

windgrass = test: Test D preemergence; assay type: in vivo, Apera spica-venti
From the text: as §1, §2

galium = test: Test D postemergence; assay type: in vivo, Galium aparine
From the text: as §1, §2

kochia = test: Test D postemergence; assay type: in vivo, Kochia scoparia
From the text: as §1, §2

oilseed rape = test: Test D postemergence; assay type: in vivo, Brassica napus
From the text: as §1, §2

pigweed = test: Test D postemergence; assay type: in vivo, Amaranthus retroflexus
From the text: as §1, §2

barley, spring = test: Test D postemergence; assay type: in vivo, Hordeum vulgare
From the text: as §1, §2

barley, winter = test: Test D postemergence; assay type: in vivo, Hordeum vulgare
From the text: as §1, §2

buckwheat, wild = test: Test D postemergence; assay type: in vivo, Polygonum convolvulus
From the text: as §1, §2

SMILES: CCc1cc(C(=O)NC(C)C)nn1Cc1ccnc(C(F)(F)F)c1 [Compound 103]
- Plant response rating, Bromegrass, Downy (bromegrass, downy; 31 g ai/ha): 5
- Plant response rating, Bromegrass, Downy (bromegrass, downy; 62 g ai/ha): 10
- Plant response rating, Bromegrass, Downy (bromegrass, downy; 125 g ai/ha): 40
- Plant response rating, Bromegrass, Downy (bromegrass, downy; 250 g ai/ha): 85
- Plant response rating, Windgrass (windgrass; 31 g ai/ha): 15
- Plant response rating, Windgrass (windgrass; 62 g ai/ha): 80
- Plant response rating, Windgrass (windgrass; 125 g ai/ha): 100
- Plant response rating, Windgrass (windgrass; 250 g ai/ha): 100
- Galium plant response rating (galium; Postemergence, 31 g ai/ha): 55
- Galium plant response rating (galium; Postemergence, 125 g ai/ha): 75
- Galium plant response rating (galium; Postemergence, 250 g ai/ha): 80
- Galium plant response rating (galium; postemergence, 62 g ai/ha): 70
- Kochia plant response rating (kochia; Postemergence, 31 g ai/ha): 60
- Kochia plant response rating (kochia; Postemergence, 125 g ai/ha): 75
- Kochia plant response rating (kochia; Postemergence, 250 g ai/ha): 75
- Kochia plant response rating (kochia; postemergence, 62 g ai/ha): 65
- Oilseed Rape plant response rating (oilseed rape; Postemergence, 31 g ai/ha): 25
- Oilseed Rape plant response rating (oilseed rape; Postemergence, 125 g ai/ha): 35
- Oilseed Rape plant response rating (oilseed rape; Postemergence, 250 g ai/ha): 45
- Oilseed Rape plant response rating (oilseed rape; postemergence, 62 g ai/ha): 35
- Pigweed plant response rating (pigweed; Postemergence, 31 g ai/ha): 70
- Pigweed plant response rating (pigweed; Postemergence, 125 g ai/ha): 65
- Pigweed plant response rating (pigweed; Postemergence, 250 g ai/ha): 70
- Pigweed plant response rating (pigweed; postemergence, 62 g ai/ha): 60
- Barley, Spring plant response rating (barley, spring; Postemergence, 31 g ai/ha): 0
- Barley, Spring plant response rating (barley, spring; Postemergence, 125 g ai/ha): 10
- Barley, Spring plant response rating (barley, spring; Postemergence, 250 g ai/ha): 15
- Barley, Spring plant response rating (barley, spring; postemergence, 62 g ai/ha): 0
- Barley, Winter plant response rating (barley, winter; Postemergence, 31 g ai/ha): 0
- Barley, Winter plant response rating (barley, winter; Postemergence, 125 g ai/ha): 5
- Barley, Winter plant response rating (barley, winter; Postemergence, 250 g ai/ha): 15
- Barley, Winter plant response rating (barley, winter; postemergence, 62 g ai/ha): 5
- Buckwheat, Wild plant response rating (buckwheat, wild; Postemergence, 31 g ai/ha): 25
- Buckwheat, Wild plant response rating (buckwheat, wild; Postemergence, 125 g ai/ha): 55
- Buckwheat, Wild plant response rating (buckwheat, wild; Postemergence, 250 g ai/ha): 60
- Buckwheat, Wild plant response rating (buckwheat, wild; postemergence, 62 g ai/ha): 50

SMILES: CCCc1cc(C(=O)NCC(F)(F)F)nn1Cc1cc(C(F)(F)F)nn1C [Compound 138]
- Plant response rating, Bromegrass, Downy (bromegrass, downy; 31 g ai/ha): 10
- Plant response rating, Bromegrass, Downy (bromegrass, downy; 62 g ai/ha): 15
- Plant response rating, Bromegrass, Downy (bromegrass, downy; 125 g ai/ha): 20
- Plant response rating, Bromegrass, Downy (bromegrass, downy; 250 g ai/ha): 65
- Plant response rating, Windgrass (windgrass; 62 g ai/ha): 45
- Plant response rating, Windgrass (windgrass; 125 g ai/ha): 100
- Plant response rating, Windgrass (windgrass; 250 g ai/ha): 100
- Galium plant response rating (galium; Postemergence, 31 g ai/ha): 80
- Galium plant response rating (galium; Postemergence, 125 g ai/ha): 100
- Galium plant response rating (galium; Postemergence, 250 g ai/ha): 100
- Galium plant response rating (galium; postemergence, 62 g ai/ha): 80
- Kochia plant response rating (kochia; Postemergence, 31 g ai/ha): 75
- Kochia plant response rating (kochia; Postemergence, 125 g ai/ha): 80
- Kochia plant response rating (kochia; Postemergence, 250 g ai/ha): 80
- Kochia plant response rating (kochia; postemergence, 62 g ai/ha): 75
- Oilseed Rape plant response rating (oilseed rape; Postemergence, 31 g ai/ha): 60
- Oilseed Rape plant response rating (oilseed rape; Postemergence, 125 g ai/ha): 90
- Oilseed Rape plant response rating (oilseed rape; Postemergence, 250 g ai/ha): 100
- Oilseed Rape plant response rating (oilseed rape; postemergence, 62 g ai/ha): 60
- Pigweed plant response rating (pigweed; Postemergence, 31 g ai/ha): 90
- Pigweed plant response rating (pigweed; Postemergence, 125 g ai/ha): 90
- Pigweed plant response rating (pigweed; Postemergence, 250 g ai/ha): 90
- Pigweed plant response rating (pigweed; postemergence, 62 g ai/ha): 90
- Barley, Spring plant response rating (barley, spring; Postemergence, 31 g ai/ha): 15
- Barley, Spring plant response rating (barley, spring; Postemergence, 125 g ai/ha): 25
- Barley, Spring plant response rating (barley, spring; Postemergence, 250 g ai/ha): 40
- Barley, Spring plant response rating (barley, spring; postemergence, 62 g ai/ha): 15
- Barley, Winter plant response rating (barley, winter; Postemergence, 31 g ai/ha): 15
- Barley, Winter plant response rating (barley, winter; Postemergence, 125 g ai/ha): 20
- Barley, Winter plant response rating (barley, winter; Postemergence, 250 g ai/ha): 40
- Barley, Winter plant response rating (barley, winter; postemergence, 62 g ai/ha): 15
- Buckwheat, Wild plant response rating (buckwheat, wild; Postemergence, 31 g ai/ha): 65
- Buckwheat, Wild plant response rating (buckwheat, wild; Postemergence, 125 g ai/ha): 70
- Buckwheat, Wild plant response rating (buckwheat, wild; Postemergence, 250 g ai/ha): 80
- Buckwheat, Wild plant response rating (buckwheat, wild; postemergence, 62 g ai/ha): 65

SMILES: CCOc1cc(C(=O)NC2CC2)nn1Cc1ccnc(C(F)(F)F)c1 [Compound 189]
- Plant response rating, Bromegrass, Downy (bromegrass, downy; 31 g ai/ha): 0
- Plant response rating, Bromegrass, Downy (bromegrass, downy; 62 g ai/ha): 15
- Plant response rating, Bromegrass, Downy (bromegrass, downy; 125 g ai/ha): 20
- Plant response rating, Bromegrass, Downy (bromegrass, downy; 250 g ai/ha): 55
- Plant response rating, Windgrass (windgrass; 62 g ai/ha): 65
- Plant response rating, Windgrass (windgrass; 125 g ai/ha): 100
- Plant response rating, Windgrass (windgrass; 250 g ai/ha): 100
- Galium plant response rating (galium; Postemergence, 31 g ai/ha): 75
- Galium plant response rating (galium; Postemergence, 125 g ai/ha): 75
- Galium plant response rating (galium; Postemergence, 250 g ai/ha): 85
- Galium plant response rating (galium; postemergence, 62 g ai/ha): 75
- Kochia plant response rating (kochia; Postemergence, 31 g ai/ha): 75
- Kochia plant response rating (kochia; Postemergence, 125 g ai/ha): 80
- Kochia plant response rating (kochia; Postemergence, 250 g ai/ha): 85
- Kochia plant response rating (kochia; postemergence, 62 g ai/ha): 75
- Oilseed Rape plant response rating (oilseed rape; Postemergence, 31 g ai/ha): 40
- Oilseed Rape plant response rating (oilseed rape; Postemergence, 125 g ai/ha): 55
- Oilseed Rape plant response rating (oilseed rape; Postemergence, 250 g ai/ha): 60
- Oilseed Rape plant response rating (oilseed rape; postemergence, 62 g ai/ha): 40
- Pigweed plant response rating (pigweed; Postemergence, 31 g ai/ha): 70
- Pigweed plant response rating (pigweed; Postemergence, 125 g ai/ha): 70
- Pigweed plant response rating (pigweed; Postemergence, 250 g ai/ha): 75
- Pigweed plant response rating (pigweed; postemergence, 62 g ai/ha): 70
- Barley, Spring plant response rating (barley, spring; Postemergence, 31 g ai/ha): 10
- Barley, Spring plant response rating (barley, spring; Postemergence, 125 g ai/ha): 15
- Barley, Spring plant response rating (barley, spring; Postemergence, 250 g ai/ha): 25
- Barley, Spring plant response rating (barley, spring; postemergence, 62 g ai/ha): 10
- Barley, Winter plant response rating (barley, winter; Postemergence, 31 g ai/ha): 15
- Barley, Winter plant response rating (barley, winter; Postemergence, 125 g ai/ha): 20
- Barley, Winter plant response rating (barley, winter; Postemergence, 250 g ai/ha): 20
- Barley, Winter plant response rating (barley, winter; postemergence, 62 g ai/ha): 15
- Buckwheat, Wild plant response rating (buckwheat, wild; Postemergence, 31 g ai/ha): 70
- Buckwheat, Wild plant response rating (buckwheat, wild; Postemergence, 125 g ai/ha): 70
- Buckwheat, Wild plant response rating (buckwheat, wild; Postemergence, 250 g ai/ha): 80
- Buckwheat, Wild plant response rating (buckwheat, wild; postemergence, 62 g ai/ha): 70

— patent publication US20150105252A1, “SUBSTITUTED PYRAZOLES AS HERBICIDES” (E I DU PONT DE NEMOURS AND COMPANY, priority 2013, published 2015)
